Where two headings read alike, the source gives them in different places.
What was measured:
[1] = test system: pRb (Ser780); experiment: High content imaging of Rb phosphorylation (Ser780), MDA-MB-361; assay type: cell-based; conditions: Homo sapiens, 16 hours, mean ± Stdev n = 2
Description: (§1) Relative IC50/EC50 values were determined by curve fitting to a four parameter logistic equation: Y = bottom + ((top-bottom)/ (1+exp(HillSlope*(X – LnIC50)), where X is the natural log of dose/concentration, Y is response, decreasing as X increases, top and bottom are plateaus in the same units as Y, lnIC50 is the natural log of potency, in the same log units as X, and HillSlope measures the steepness of the curve. Data were plotted using GraphPad Prism.
As controls, cells were treated with 10 µM palbociclib or vehicle ( 0.2 % v/v DMSO). Additional details for cell-based assays are provided in the Supplemental Methods. […]
www.impactjournals.com/oncotarget/ Oncotarget Supplementary Materials
(§2) Preclinical characterization of abemaciclib in hormone receptor […]
METHODS High content imaging cell-based assays for monitoring phosphorylation of Rb (ser780), G1 arrest and
Enzyme kinetics of CDK6/cyclin D3 complexes Cells were fixed with para-formaldehyde and Rb phosphorylation at Serine 780 was detected using CDK6/cyclin D3 activity was measured by the a primary mouse anti-Rb (PS780) antibody followed phosphorylation of CTRF using [g-33P] […] Plates were read in an kinase buffer containing 68 mM Hepes at pH 7.5, 6.67 mM Acumen Explorer eX3 (TTP Labtech). […]
(§3) (EDTA) was used to determine the level of background evaluated by measuring PI signal using high content 33P in the absence of enzyme activity. […]

[2] = test system: MCF7 cells; experiment: PI high content imaging of G1 arrest and cell proliferation, MCF7; assay type: cell-based; conditions: Homo sapiens
Description: as §1, with “Prism. […]” for “Prism.”
as §2
METHODS High content imaging cell-based assays for monitoring phosphorylation of Rb (ser780), G1 arrest and […]
ATP at 20°C by a secondary goat anti-mouse IgG-Alexa Fluor 488 in a 96-well plate filtration assay format. […] Plates were read in an kinase buffer containing 68 mM Hepes at pH 7.5, 6.67 mM Acumen Explorer eX3 (TTP Labtech). […] 10µL of CDK6/cyclin corresponding to 500-530 nm and the percentage of D3 enzyme complex (Millipore 14-519, #D13BP009NA) cells with pRb signal relative to the total PI stained (1 nM final concentration in the assay) was added onto subpopulation was calculated by the instrument’s software a mix of substrate and test compound. […]
as §3

For CCN1CCN(Cc2ccc(Nc3ncc(F)c(-c4cc(F)c5nc(C)n(C(C)C)c5c4)n3)nc2)CC1 [abemaciclib, Abemaciclib], which IC50 [1] is on record?
Its IC50 is 0.067 ± 0.037 µM.

And the IC50 ([2]; n = 2, read-out: IC50 2n (G1 arrest))?
The IC50 was 0.054 ± 0.016 µM.

What about the IC50 ([2]; n = 2, read-out: IC50 Cell number) of the same molecule?
The IC50 was 0.369 ± 0.37 µM.

Reference: article PMC5642494 (Oncotarget, 2017)
